Reference: patent US12162836B2, “N-acyl-{4-[(4-aryl-phenyl)sulfonylmethyl]piperidine} compounds and their therapeutic use” (Modern Biosciences Limited, priority 2019, dated 2024)
Values after ≈ are worked out from the molar mass of the structure shown.

Legend:
[1] = molecular target: hERG ion channel (Homo sapiens (Human), UniProt Q12809); assay: hERG Ion Channel binding assay (3H astemizole displacement)
Method: (§1) The activity of the compounds against the hERG ion channel was tested using a binding assay in stably transfected Human Embryonic Kidney cells (hERG-HEK293). hERG-HEK293 cells were cultured in MEM medium (Invitrogen)+10% FBS, glutamine and non-essential amino acids at 37° C. To prepare membranes, cells were homogenised on ice, centrifuged at 650×g for 10 minutes at +4° C., and the resulting supernatant centrifuged at 48000×g for 10 minutes at +4° C. The pellet was resuspended in ice-cold 50 mM Tris-HCl buffer, 5 mM KCl (pH 8.5) and stored frozen in aliquots until use.
(§2) For binding assays, membranes were thawed, re-suspended in assay buffer (10 mM HEPES pH 7.4, 0.1% BSA, 5 mM potassium chloride, 0.8 mM magnesium chloride, 130 mM sodium chloride, 1 mM sodium-EGTA, 10 mM glucose) and incubated with ^3H astemizole (1.5 nM), and with or without test compound at 25° C. for 60 minutes. Binding was determined following filtration of the membranes and washing in Tris-HCl buffer by scintillation counting of ^3H astemizole.
(§3) The degree of binding of compounds to the hERG ion channel (%) was obtained by measuring the binding of ^3H astemizole and its displacement by test compound. A value of 0% indicates no binding and a value of 100% indicates complete displacement of the radiolabelled ligand.

[2] = molecular target: hERG (Homo sapiens (Human), UniProt Q12809); assay: as above; details: human, membranes of HEK293 cells stably expressing hERG, pH 7.4, probe 3H astemizole (1.5 nM); 30 μM; displacement of 3H astemizole, hERG-HEK293 membranes
Method: as §1, §2, §3

[3] = system: Thp1 human monocytic cells; assay: Thp1 Monocyte ATP Production Assay (ATPlite); assay type: cell-based; details: Homo sapiens, THP-1; Thp1 cells, 24 hour incubation; 9-point concentration range from 10 μM to 10 nM; mean of 2 independent experiments
Method: In vitro potency of test compounds was determined by incubation with Thp1 human monocytic cells and subsequent determination of Adenosine TriPhosphate (ATP) levels using firefly luciferase.
ATP is present in all metabolically active cells. When cells lose integrity, their ability to synthesise ATP is rapidly lost. […] See, e.g., Kang et al., 2015; Jiang et al., 2013. Levels of ATP can be monitored using a system based on firefly (Photinus pyralis) luciferase (see, e.g., Auld et al., 2009) using commercially available kits. A system known as ATPlite™ was using to measure effects of the test compounds on cellular viability in vitro. This one-step assay system is an adenosine triphosphate (ATP) monitoring system based on the production of light caused by the reaction of ATP from the cells with added luciferase and D-luciferin, as illustrated in the reaction scheme below:
Thp1 cells were plated at 112500 cells per well in 125 μL RPMI-1640 (no glucose) with 1% FBS in 96-well plates. Test compounds were prepared as 100 mM solutions in DMSO. These stock solutions were diluted in DMSO and then diluted 1000× in culture medium (RPMI) before being added directly to the wells so as to give the desired final compound concentration. After a 24 hour incubation at 37° C./5% CO2, ATPLite™ (Perkin Elmer) was added to each well (1:10 v/v, 10 μL). The plate was then incubated at room temperature for 5 minutes and the emitted light was quantified on Viewlux with a measurement time of 0.3 seconds and binning 4×4.
The average results for each test compound were expressed as a percent (%) of the average control value reflecting cell viability. The average values across the concentrations tested were then plotted and the IC50 for was calculated by fitting the data to a 4-parameter IC50 equation using software from Graf it (Erithacus Software). Each experiment was repeated twice and the data are presented as the mean IC50 from both experiments.

[4] = Aqueous solubility in FaSSIF; assay type: physicochemical
Method: Aqueous solubility was measured by equilibration of compounds with fasted state simulated intestinal fluid (FaSSIF) and quantified spectrophotometrically.
Preparation of blank FaSSIF: 0.21 g of sodium hydroxide (NaOH) pellets, 1.97 g of dihydrogen sodium phosphate (NaH2PO4.2H2O) and 3.09 g of sodium chloride (NaCl) were dissolved in 400 mL of deionised water. The pH was adjusted to 6.5 using 1 M hydrochloric acid and further deionised water added to a final volume of 500 mL.
Preparation of FaSSIF: 0.056 g of SIF Powder (containing sodium taurocholate and lecithin) (Pharses A G) was dissolved in 25 mL of blank FaSSIF and stirred until the powder was completely dissolved. The solution was allowed to stand for 2 hours during which it became opalescent; it was used within 24 hours. The final solution composition was characterised as follows: • Sodium taurocholate: 3 mM • Lecithin: 0.75 mM • Osmolarity: 270±10 mOsmol • pH: 6.5
The optical density was measured at the end of the incubation period for test compounds and a reference used to determine solubility. In brief, two samples were prepared for each determination: a reference sample consisting of a stock solution of test compound in DMSO diluted in system solution (a phosphate free, low absorption buffer) and propanol; and a test sample (prepared in triplicate) consisting of 0.5 mL FaSSIF spiked with test compound at 0.2 mM. Each sample was incubated at room temperature for 16 hours with constant shaking at 250 rpm. At the end of the incubation period, 0.3 mL of each sample was filtered through a pION filter plate (PION, Woburn MA), diluted 1:1 with propanol and scanned using UV spectrophotometry at Amax ([…]) using a Spectra Max Plus—Version 2.1000 (Molecular Devices, Sunnyvale, CA), with pSOL Explorer solubility determination software (pION, Woburn, MA).
FaSSIF solubility was calculated using the following formula:
[formula] • wherein: • “OD” is the optical density; • “Cr” is the concentration of the reference (33.4 μM); and • “molecular weight” is for the test compound (e.g., 381.44 for ABD735).

[5] = Rodent Pharmacokinetics Studies; assay type: in vivo, rat; details: rats
Source text: Absorption and metabolic stability were studied using an in vivo pharmacokinetics assay.
[…] Test compounds were formulated in 0.5% carboxymethylcellulose (CMC)/0.1% Tween-80 for administration via the oral route, or in 5% DMSO/10% solutol in saline for administration via the intravenous route. For compound HMC-C-01-A the oral administration was formulated in 2% dimethylacetamide/20% hydroxypropyl-β-cyclodextrin in water. Animals were given free access to food throughout the study except for fasting overnight and until 2 hours post dose on the day of dosing.
Blood samples were taken from the retro-orbital plexus at the following time points and placed in microtubes containing 20% K2EDTA solution:
Oral Dosing: predose; 0.25, 0.5, 1, 2, 4, 6, 8, 12 and 24 hours post dose.
Blood samples were centrifuged to obtain plasma, which was transferred to a separate container and frozen at −20° C.
For analysis, samples were thawed at room temperature and prepared by protein precipitation with acetonitrile spiked with internal standard (500 ng/mL glipizide) in the ratio 1:4 with plasma.
The pharmacokinetic parameters for the test compounds were calculated by Phoenix WinNonlin version 8.0 (Certara, CA) using standard non-compartmental methods. Peak plasma concentrations (Cmax) and time of the peak plasma concentration (Tmax) were the observed values. The area under the plasma concentration-time curve (AUC) was determined by use of the linear trapezoidal rule up to the last measurable concentration (AUClast) and thereafter by extrapolation of the terminal elimination phase to infinity (AUCinf). The elimination phase half-life (t1/2) was calculated as 0.693/kel.

[6] = molecular target: CYP2D6 (Homo sapiens (Human), UniProt P10635); assay: Human Cytochrome P450 Inhibition Assay (Bactosomes); assay type: in vitro ADME; details: recombinant Bactosomes, 10 minutes
Method: (§4) The ability of test compounds to inhibit five of the most relevant cytochrome P450 enzymes was measured by determination of the activity of cytochrome P450 enzymes in recombinant cytochrome preparations, called Bactosomes (Cypex Ltd, Dundee, Scotland UK DD2 1 NH), in the presence of a specific probe substrate. Bactosomes are a highly efficient and cost-effective source of recombinant CYP450s which have a higher specific activity of enzyme compared to other sources, such as liver microsomes. […] The following CYP450 isoforms were assayed: CYP1A2, CYP2C9, CYP2C19, CYP2D6 and CYP3A4. The study of CYP450 inhibition potential in Bactosomes is accepted as a valuable model permitting rapid prediction of potential drug-drug interactions in vivo (see, e.g., Weaver et al., 2003).
(§5) Bactosomes were obtained from a commercial source (Cypex, Scotland, UK). Test compounds were incubated with Bactosomes at 6 concentrations. Samples were incubated for 10 minutes, after which the reaction was stopped and the samples analysed by LC-MS/MS Multiple Reaction Monitoring (MRM) for the presence/amount of substrate probe.
(§6) CYP450 enzymes (final protein 75 pmol/mL for CYP1A2; 12.5 pmol/mL for CYP2C19; and 25 pmol/mL for CYP2C9, 2D6 and 3A4), 0.1 M phosphate buffer pH 7.4, probe and test compound (final concentration 50, 15.8, 5, 1.58, 0.5 and 0.158 μM; diluted from 10 mM stock solution to give a final DMSO concentration of 1%) were pre-incubated at 37° C. for 5 minutes. The reaction was initiated by the addition of 20 μL of 10 mM NADPH in phosphate buffer. The final incubation volume was 200 μL. The following control inhibitors were used for each CYP450 inhibition assay: CYP1A2: α-naphthoflavone; CYP2C9: sulfaphenazole; CYP2C19: tranylcypromine; CYP2D6: quinidine; CYP3A4: ketoconazole.
(§7) Each compound was incubated for 10 minutes at 37° C. The reactions were stopped by the addition of methanol (final composition 1:1, aqueous: methanol). The incubation plates were shaken, chilled at […] for 2 hours, and centrifuged at 3500 rpm for 15 minutes at 4° C. to precipitate the protein.

[7] = molecular target: CYP1A2 (Homo sapiens (Human), UniProt P05177); assay: as above; assay type: in vitro ADME; details: recombinant enzyme
Method: as §4, §5, §6, §7

[8] = molecular target: CYP3A4 (Homo sapiens (Human), UniProt P08684); assay: as above; assay type: in vitro ADME; details: recombinant Bactosomes, 10 minutes
Method: as §4, §5, §6, §7

[9] = molecular target: CYP2C19 (Homo sapiens (Human), UniProt P33261); assay: as above; assay type: in vitro ADME; details: recombinant Bactosomes, 10 minutes
Method: as §4, §5, §6, §7

[10] = molecular target: CYP2C9 (Homo sapiens (Human), UniProt P11712); assay: as above; assay type: in vitro ADME; details: recombinant Bactosomes, 10 minutes
Method: as §4, §5, §6, §7

Chain of CYP2C9 (P11712 whole entry): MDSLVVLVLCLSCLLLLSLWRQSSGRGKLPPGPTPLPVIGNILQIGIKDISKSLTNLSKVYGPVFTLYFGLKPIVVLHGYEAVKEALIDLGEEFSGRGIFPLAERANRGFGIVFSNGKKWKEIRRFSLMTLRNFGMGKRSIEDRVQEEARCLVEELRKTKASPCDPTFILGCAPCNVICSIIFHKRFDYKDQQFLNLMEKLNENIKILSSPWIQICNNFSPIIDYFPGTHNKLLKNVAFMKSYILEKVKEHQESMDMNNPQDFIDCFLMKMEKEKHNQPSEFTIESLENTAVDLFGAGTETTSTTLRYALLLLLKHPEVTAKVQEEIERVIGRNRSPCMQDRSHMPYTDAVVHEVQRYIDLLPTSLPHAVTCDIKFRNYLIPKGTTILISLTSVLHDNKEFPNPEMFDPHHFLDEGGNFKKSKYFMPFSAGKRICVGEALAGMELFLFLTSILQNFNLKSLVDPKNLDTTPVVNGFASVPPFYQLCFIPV
Chain of CYP2D6 (P10635 whole entry, canonical isoform): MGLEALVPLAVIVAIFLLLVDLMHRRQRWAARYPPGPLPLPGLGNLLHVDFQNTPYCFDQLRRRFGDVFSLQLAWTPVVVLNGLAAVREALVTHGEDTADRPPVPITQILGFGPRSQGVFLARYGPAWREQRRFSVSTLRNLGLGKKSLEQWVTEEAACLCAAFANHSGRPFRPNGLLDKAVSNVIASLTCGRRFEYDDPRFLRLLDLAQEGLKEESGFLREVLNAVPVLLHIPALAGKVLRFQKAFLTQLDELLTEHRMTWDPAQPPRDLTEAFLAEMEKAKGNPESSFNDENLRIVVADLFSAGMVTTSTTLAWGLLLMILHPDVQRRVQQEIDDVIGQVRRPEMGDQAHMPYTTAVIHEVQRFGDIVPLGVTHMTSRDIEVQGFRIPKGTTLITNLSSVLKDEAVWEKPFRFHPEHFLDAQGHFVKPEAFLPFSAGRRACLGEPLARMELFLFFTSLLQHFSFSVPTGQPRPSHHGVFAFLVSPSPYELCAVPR
Chain of CYP1A2 (P05177 whole entry): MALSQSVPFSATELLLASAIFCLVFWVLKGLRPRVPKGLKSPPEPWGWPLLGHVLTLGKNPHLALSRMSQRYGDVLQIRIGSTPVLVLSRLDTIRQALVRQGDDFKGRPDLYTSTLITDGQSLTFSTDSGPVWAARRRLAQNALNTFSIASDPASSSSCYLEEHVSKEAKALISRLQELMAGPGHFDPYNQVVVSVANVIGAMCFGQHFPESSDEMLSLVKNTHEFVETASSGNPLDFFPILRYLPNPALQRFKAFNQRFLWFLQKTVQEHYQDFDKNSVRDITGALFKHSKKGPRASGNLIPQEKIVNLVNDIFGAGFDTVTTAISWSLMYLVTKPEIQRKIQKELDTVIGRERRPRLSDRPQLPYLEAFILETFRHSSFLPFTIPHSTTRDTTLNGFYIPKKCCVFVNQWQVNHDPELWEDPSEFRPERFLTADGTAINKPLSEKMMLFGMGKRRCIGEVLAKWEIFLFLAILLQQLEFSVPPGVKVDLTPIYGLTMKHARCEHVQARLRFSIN
Chain of CYP3A4 (P08684 whole entry): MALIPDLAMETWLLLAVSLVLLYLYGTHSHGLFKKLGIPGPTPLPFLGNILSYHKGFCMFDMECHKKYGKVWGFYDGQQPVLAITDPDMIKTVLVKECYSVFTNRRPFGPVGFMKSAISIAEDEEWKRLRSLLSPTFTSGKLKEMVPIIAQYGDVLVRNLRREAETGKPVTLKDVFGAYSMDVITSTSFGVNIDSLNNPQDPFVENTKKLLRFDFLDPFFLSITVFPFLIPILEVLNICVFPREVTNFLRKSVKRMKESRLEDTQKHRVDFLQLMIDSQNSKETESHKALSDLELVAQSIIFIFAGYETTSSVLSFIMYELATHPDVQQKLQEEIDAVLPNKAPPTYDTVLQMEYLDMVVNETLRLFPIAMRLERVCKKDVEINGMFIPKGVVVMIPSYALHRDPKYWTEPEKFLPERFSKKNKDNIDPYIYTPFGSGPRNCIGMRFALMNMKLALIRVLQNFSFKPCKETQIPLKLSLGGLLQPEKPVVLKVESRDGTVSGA
Chain of CYP2C19 (P33261 whole entry): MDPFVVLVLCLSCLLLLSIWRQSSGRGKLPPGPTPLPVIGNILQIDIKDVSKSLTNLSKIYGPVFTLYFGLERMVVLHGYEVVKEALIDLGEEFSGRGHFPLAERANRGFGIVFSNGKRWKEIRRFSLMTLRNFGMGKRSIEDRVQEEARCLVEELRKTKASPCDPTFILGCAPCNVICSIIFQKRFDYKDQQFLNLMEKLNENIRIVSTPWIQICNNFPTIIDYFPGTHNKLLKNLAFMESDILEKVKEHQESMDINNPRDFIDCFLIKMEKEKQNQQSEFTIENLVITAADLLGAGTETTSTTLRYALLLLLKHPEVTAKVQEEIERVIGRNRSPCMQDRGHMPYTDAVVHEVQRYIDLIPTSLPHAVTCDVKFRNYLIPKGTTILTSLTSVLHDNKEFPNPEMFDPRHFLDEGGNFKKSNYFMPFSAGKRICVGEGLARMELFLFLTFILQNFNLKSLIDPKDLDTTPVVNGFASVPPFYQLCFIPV
Chain of hERG ion channel (Q12809 whole entry): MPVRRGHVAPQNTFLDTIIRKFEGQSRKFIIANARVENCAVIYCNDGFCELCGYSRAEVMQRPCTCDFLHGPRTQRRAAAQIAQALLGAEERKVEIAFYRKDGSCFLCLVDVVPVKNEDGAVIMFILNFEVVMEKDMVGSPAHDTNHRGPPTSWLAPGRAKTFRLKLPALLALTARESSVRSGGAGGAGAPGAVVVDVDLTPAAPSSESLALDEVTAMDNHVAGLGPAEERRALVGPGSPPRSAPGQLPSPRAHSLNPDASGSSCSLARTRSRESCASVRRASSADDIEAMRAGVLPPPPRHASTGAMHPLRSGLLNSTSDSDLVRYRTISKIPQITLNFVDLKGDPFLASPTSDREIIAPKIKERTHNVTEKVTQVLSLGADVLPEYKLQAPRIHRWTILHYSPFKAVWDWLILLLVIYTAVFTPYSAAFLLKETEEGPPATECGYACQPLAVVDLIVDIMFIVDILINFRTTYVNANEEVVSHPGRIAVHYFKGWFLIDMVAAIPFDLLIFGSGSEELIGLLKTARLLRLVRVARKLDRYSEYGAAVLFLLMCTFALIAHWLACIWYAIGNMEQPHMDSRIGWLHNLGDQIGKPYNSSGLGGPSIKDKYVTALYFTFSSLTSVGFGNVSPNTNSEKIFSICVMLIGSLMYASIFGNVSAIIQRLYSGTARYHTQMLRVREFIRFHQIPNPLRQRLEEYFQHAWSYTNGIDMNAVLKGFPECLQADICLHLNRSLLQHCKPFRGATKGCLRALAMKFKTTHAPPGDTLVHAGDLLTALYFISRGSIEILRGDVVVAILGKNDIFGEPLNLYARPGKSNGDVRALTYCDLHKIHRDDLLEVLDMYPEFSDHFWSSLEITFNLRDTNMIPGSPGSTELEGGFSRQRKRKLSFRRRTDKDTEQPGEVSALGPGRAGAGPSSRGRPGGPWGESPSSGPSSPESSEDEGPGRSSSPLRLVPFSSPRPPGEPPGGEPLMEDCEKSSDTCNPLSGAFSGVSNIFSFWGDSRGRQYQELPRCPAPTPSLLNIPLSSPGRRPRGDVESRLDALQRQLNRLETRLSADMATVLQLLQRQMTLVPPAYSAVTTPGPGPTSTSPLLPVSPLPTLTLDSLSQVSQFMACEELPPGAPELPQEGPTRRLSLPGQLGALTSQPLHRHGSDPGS
Chain of hERG (Q12809 whole entry): as above

Structure (SMILES)	IC50 [3] [µM]	solubility (in words) [4]	solubility at 16 h ([4]; kinetic from dmso stock, pH 6.5, 16 hours, room temperature) [µg/mL]	T1/2 ([5]; 5% DMSO/10% solutol in saline both routes (footnote 1)) [min]	Bioavail, F ([5]; 5% DMSO/10% solutol in saline for both oral and intravenous routes (footnote 1)) [%]	i.v. AUC ([5]; intravenous, 5% DMSO/10% solutol in saline (footnote 1)) [ng/mL/min]	p.o. AUC ([5]; oral, 5% DMSO/10% solutol in saline (footnote 1)) [ng/mL/min]	IC50 [6] [µM]	IC50 [7] [µM]	IC50 [8] [µM]	IC50 [9] [µM]	IC50 [10] [µM]	cardiac safety profile, hERG (in words) [1]	inhibition at 60 min, 30 µM [2] [%]
CC1(O)CCC(NS(=O)(=O)c2ccc(-c3ccc(Cl)cc3C#N)c(Cl)c2)CC1 (centres unmarked) [HMC-C-11-A, reference compound]								9.3	11	12	5.1	2.7		
CC1(O)CCC(NS(=O)(=O)c2ccc(-c3ccc(C#N)cc3Cl)cc2)CC1 (centres unmarked) [HMC-C-09-A, reference compound]								> 50	23	33	> 50	34		
CC1(O)CCC(NS(=O)(=O)c2ccc(-c3cc(F)c(F)cc3F)cc2)CC1 (centres unmarked) [HMC-C-10-B, reference compound]								> 16	> 16	9.2	8.5	2.4		

Second part, led by results:

IC50 [3] [µM]	solubility (in words) [4]	solubility at 16 h ([4]; kinetic from dmso stock, pH 6.5, 16 hours, room temperature) [µg/mL]	T1/2 ([5]; 5% DMSO/10% solutol in saline both routes (footnote 1)) [min]	Bioavail, F ([5]; 5% DMSO/10% solutol in saline for both oral and intravenous routes (footnote 1)) [%]	i.v. AUC ([5]; intravenous, 5% DMSO/10% solutol in saline (footnote 1)) [ng/mL/min]	p.o. AUC ([5]; oral, 5% DMSO/10% solutol in saline (footnote 1)) [ng/mL/min]	IC50 [6] [µM]	IC50 [7] [µM]	IC50 [8] [µM]	IC50 [9] [µM]	IC50 [10] [µM]	Structure (SMILES)	cardiac safety profile, hERG (in words) [1]	inhibition at 60 min, 30 µM [2] [%]
4.6	particularly good solubility	77 (≈ 189 µM)										CC(=O)N1CCC(C(C)S(=O)(=O)c2ccc(-c3ccc(F)cc3F)cc2)CC1 (centres unmarked) [NASMP-17, 1-(4-(1-((2′,4′-Difluoro-[1,1′-biphenyl]-4-yl)sulfonyl)ethyl)piperidin-1-yl)ethan-1-one]	particularly positive profile	14
			48	88	891	3937	> 50	36	> 50	> 50	27	CC1(O)CCC(NS(=O)(=O)c2ccc(-c3ncc(Cl)cc3C#N)cc2)CC1 (centres unmarked) [HMC-N-05-A, reference compound]		
